These results are taken from patent US5391540A, “Substituted pyridine compounds” (Rohm and Haas Company, priority 1993, dated 1995).

Usually inhibition stands for the change of the read-out against control, counted positive when it falls.

Holding throughout (test): Pre-emergent herbicidal activity (Table A)
Assay type in all cases: in vivo

In assay [1] the test system is Annual Bluegrass. To be noted: pre-emergence, Anbg, 11.2 kg/ha, 10-14 days, read-out: herbicidal rating (% inhibition). The method, boiled down:
(§1)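 Seeds were sown on compacted topsoil and covered with soil into which test compound (in acetone or water carrier) had been mixed at 11.2 kg/ha. Pans were kept watered on a greenhouse bench, and percent inhibition was scored as a rating about 10-14 days (usually 11) after treatment.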

In assay [2] the test system is Indian Mustard. To be noted: Brassica juncea, pre-emergence, Inmu, 11.2 kg/ha, 10-14 days, read-out: herbicidal rating (% inhibition). The method, boiled down: as §1
In assay [3] the test system is Wild Buckwheat. Particulars: Fallopia convolvulus, pre-emergence, Wibw, 11.2 kg/ha, 10-14 days, read-out: herbicidal rating (% inhibition). The method, boiled down:
as §1

Assay [4] deals with Seedling Johnsongrass. To be noted: Sorghum halepense, pre-emergence, Sejg, 11.2 kg/ha, 10-14 days, read-out: herbicidal rating (% inhibition). The method, boiled down: as §1
Assay [5] deals with Morningglory. Particulars: Ipomoea, pre-emergence, Mogl, 11.2 kg/ha, 10-14 days, read-out: herbicidal rating (% inhibition). The method, boiled down:
(§2)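 Seeds or perennial propagules set on compacted topsoil, then covered with soil mixed with a known amount of test compound applied in acetone or water carrier. Ratings assigned on a scale based on percent inhibition of each species.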

For assay [6], the system named is Barnyardgrass. Particulars: Echinochloa crus-galli, pre-emergence, Bygr, 11.2 kg/ha, 10-14 days, read-out: herbicidal rating (% inhibition). The method, boiled down:
as §2

The test system of assay [7] is Velvetleaf. To be noted: Abutilon theophrasti, pre-emergence, Vele, 11.2 kg/ha, 10-14 days, read-out: herbicidal rating (% inhibition). The method, boiled down: as §2
Assay [8] concerns Cocklebur. To be noted: Xanthium strumarium, pre-emergence, Cobu, 11.2 kg/ha, 10-14 days, read-out: herbicidal rating (% inhibition). The method, boiled down: as §2
In assay [9] the test system is Downy Brome. Particulars: Bromus tectorum, pre-emergence, Dobr, 11.2 kg/ha, 10-14 days, read-out: herbicidal rating (% inhibition). The method, boiled down: as §2
The test system of assay [10] is Yellow Nutsedge. To be noted: Cyperus, pre-emergence, Yens, 11.2 kg/ha, 10-14 days, read-out: herbicidal rating (% inhibition). In short, it runs like this:
as §2

For the compound `COc1nc(C(F)(F)F)c(C(=O)n2cccn2)c(CC(C)C)c1C(=O)SC` [Compound 131, 3-pyridinecarbothioic acid, 2-methoxy-4-(2-methylpropyl)-5-(1H-pyrazo1-1-ylcarbonyl)-6-(trifluoromethyl)-, S-methyl ester], the inhibition at 11200 g/ha in [1], in [2], in assay [3], in assay [4], in assay [5] and in assay [6] was 75 to 100% in each case. The inhibition at 11200 g/ha in assay [7] is 75 to 100%; in [8], 50 to 74%; in assay [9], 75 to 100%; in [10], 75 to 100%.
As to `COC(=O)c1c(OC)nc(C(F)(F)F)c(C(=O)N2CCCO2)c1CC(C)C` [Compound 132, 3-pyridinecarboxylic acid, 5-(2-isoxazolidinecarbonyl)-2-methoxy-4-(2-methylpropyl)-6-(trifluoromethyl)-, methyl ester], the inhibition at 11200 g/ha is 75 to 100% in assay [1]; 75 to 100% in [2]; 75 to 100% in [3]; 75 to 100% in assay [4]; 50 to 74% in [5]; 75 to 100% in assay [6]. Besides, the inhibition at 11200 g/ha in assay [7] fell in the range of 75 to 100%; in assay [8], 0 to 24%; in assay [9] it was 75 to 100%; in assay [10], 0 to 24%.
Turning to `COc1nc(C(F)(F)F)c(C(=O)Cl)c(CC(C)C)c1C(=O)SC` [Compound 133, 3-pyridinecarbothioic acid, 5-(chlorocarbonyl)-2-methoxy-4-(2-methylpropyl)-6-(trifluoromethyl)-, S-methyl ester], the inhibition at 11200 g/ha was in the range of 0 to 24% in [1]; 25 to 49% in assay [2]; 0 to 24% in assay [3]; 0 to 24% in assay [4]; 0 to 24% in assay [5]; 0 to 24% in assay [6]. Moreover, the inhibition at 11200 g/ha in [7], in assay [8], in [9] and in [10] was 0 to 24% throughout.
In the case of `COc1nc(C(F)(F)F)c(CO)c(CC(C)C)c1C(=O)SC` [Compound 134, 3-pyridinecarbothioic acid, 5-(hydroxymethyl)-2-methoxy-4-(2-methylpropyl)-6-(trifluoromethyl)-, S-methyl ester], the inhibition at 11200 g/ha lay in the range of 75 to 100% in assay [1]; 25 to 49% in assay [2]; 0 to 24% in assay [3]; 0 to 24% in assay [4]; 0 to 24% in assay [5]; 75 to 100% in [6]. In addition, the inhibition at 11200 g/ha in assay [7] is 50 to 74%; in [8] it was 0 to 24%; in assay [9], 0 to 24%; in [10] it was 0 to 24%.
Consider `COc1nc(C(F)(F)F)c(C=O)c(CC(C)C)c1C(=O)SC` [Compound 135, 3-pyridinecarbothioic acid, 5-formy1-2-methoxy-4-(2-methylpropyl)-6-(trifluoromethyl)-, S-methyl ester], for which the inhibition at 11200 g/ha in assay [1] was in the range of 75 to 100%; in assay [2], 75 to 100%; in [3] it was 25 to 49%; in assay [4], 50 to 74%; in [5] it was 0 to 24%; in [6], 75 to 100%. For the same compound, the inhibition at 11200 g/ha in [7] fell in the range of 50 to 74%; in [8], 0 to 24%; in [9], 75 to 100%; in assay [10], 0 to 24%.
In the case of `COc1nc(C(F)(F)F)c(C2OCCCO2)c(CC(C)C)c1C(=O)SC` [Compound 136, 3-pyridinecarbothioic acid, 5-(1,3-dioxan-2-yl)-2-methoxy-4-(2-methylpropyl)-6-(trifluoromethyl)-, S-methyl ester], the inhibition at 11200 g/ha in [1] lay within 75 to 100%; in [2] it was 75 to 100%; in assay [3], 75 to 100%; in [4], 75 to 100%; in assay [5], 50 to 74%; in assay [6], 75 to 100%. Besides, the inhibition at 11200 g/ha lay within 50 to 74% in assay [7], 50 to 74% in [8], 75 to 100% in assay [9] and 25 to 49% in assay [10].
Regarding `COC(=O)c1c(OC)nc(C(F)(F)F)c(C(=O)Cl)c1C1CCC1` [Compound 138, 3-pyridinecarboxylic acid, 5-(chlorocarbonyl)-4-cyclobuty1-2-methoxy-6-(trifluoromethyl)-, methyl ester], the inhibition at 11200 g/ha in assay [1], in assay [2], in assay [3], in [4], in assay [5] and in assay [6] was 0 to 24% in each case. Also, the inhibition at 11200 g/ha in assay [7], in [8], in [9] and in assay [10] was 0 to 24% each time.
Regarding `COC(=O)c1c(OC)nc(C(F)(F)F)c(C=O)c1C1CCC1` [Compound 139, 3-pyridinecarboxylic acid, 4-cyclobuty1-5-formy1-2-methoxy-6-(trifluoromethyl)-, methyl ester], the inhibition at 11200 g/ha was 75 to 100% in [1]; 75 to 100% in assay [2]; 75 to 100% in [3]; 75 to 100% in assay [4]; 50 to 74% in assay [5]; 75 to 100% in assay [6]. Also, the inhibition at 11200 g/ha was in the range of 75 to 100% in assay [7], 0 to 24% in assay [8], 75 to 100% in assay [9] and 0 to 24% in assay [10].
Turning to `COC(=O)c1c(OC)nc(C(F)(F)F)c(C(=O)n2cncn2)c1C1CCC1` [Compound 141], the inhibition at 11200 g/ha in [1], in assay [2], in assay [3], in assay [4], in assay [5] and in assay [6] was 75 to 100% each time. For the same compound, the inhibition at 11200 g/ha lay in the range of 75 to 100% in [7], 0 to 24% in assay [8], 75 to 100% in assay [9] and 50 to 74% in [10].
